The term IC50 denotes the concentration needed to halve the response being measured. Read a high IC50 as weaker potency in that assay.

The text below walks through data of patent US6869964B2, “Heterocyclicsulfonamide hepatitis C virus inhibitors” (Bristol-Myers Squibb Company, priority 2002, dated 2005).

The assay deals with T1, human liver cathepsin B (Homo sapiens, UniProt P07858).
T1 construct: one cysteine protease: human liver cathepsin B; from tissue; host or cells: human liver (from the enzyme's name only)
The assay is described as follows: Specificity assay, human liver cathepsin B. Format: biochemical. The conditions noted are these: 2 hr enzyme-inhibitor pre-incubation; solubility issues at 100 μM. The method, then: The specificities of compounds of the present invention were determined against a variety of serine proteases: human sputum elastase (HS), porcine pancreatic elastase (PPE) and human pancreatic chymotrypsin and one cysteine protease: human liver cathepsin B. In all cases a 96-well plate format protocol using colorimetric p-nitroaniline (pNA) substrate specific for each enzyme was used as described previously (CT 2633 application) with some modifications to the serine protease assays.
Each assay included a 2 hr enzyme-inhibitor pre-incubation at RT followed by addition of substrate and hydrolysis to ˜30% conversion as measured on a Spectramax Pro microplate reader. Compound concentrations varied from 100 to 0.4 μM depending on their potency.
The percentage of inhibition was calculated using the formula: [1−((UVinh−UVblank)/(UVctl−UVblank))]×100
A non-linear curve fit was applied to the inhibition-concentration data, and the 50% effective concentration (IC50) was calculated by the use of Excel Xl-fit software.

`C=CC1C[C@]1(NC(=O)[C@@H]1C[C@@H](Oc2cc(-c3ccccc3)nc3cc(OC)ccc23)CN1C(=O)[C@@H](NC(=O)OC(C)(C)C)C(C)(C)C)C(=O)NS(=O)(=O)c1cccs1` (stereo in doubt) [Compound 1, (1-{4-(7-Methoxy-2-phenylquinolin-4-yloxy)-2-[1-(thiophene-2-sulfonylaminocarbonyl)-2-vinyl-cyclopropylcarbamoyl]-pyrrolidine-1-carbonyl}-2,2-dimethylpropyl)carbamic acid tert-butyl ester] displayed an IC50 of over 50 µM.
